In patent publication US12091426B2, “Bifunctional degraders of hematopoietic progenitor kinase and therapeutic uses thereof” (Nurix Therapeutics, Inc., priority 2021, dated 2024):

Molecular target: T1, HPK1 (Homo sapiens, UniProt Q92918)
T1 construct: A HiBiT tag was introduced by CRISPR on the N terminus of HPK1 in Jurkat cells; host or cells: Jurkat cells (ATCC TIB-152), monoclonal line with CRISPR knock-in of HiBiT at the endogenous HPK1 locus
Experiment: HPK1 Cellular HiBit Degradation Assay
Format: cell-based
Details: HiBiT HPK1 Jurkat cells, 24 hrs; for DC50: concentration at which 50% of HPK1 was remaining, read-out: DC50 Category; for Dmax: Jurkat, maximum degradation vs DMSO vehicle control, read-out: Dmax Category
In short: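 HPK1 levels are read by HiBiT luminescence after 24 h exposure of HiBiT-knock-in Jurkat cells to compound at 10 uM–0.1 nM final (11 points). Relative to DMSO (100%), DC50 is the concentration leaving 50% HPK1 from a variable-slope fit, and Dmax is 100 minus minimum remaining. Viability checked in-plate.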

T1 sequence (Q92918 whole entry): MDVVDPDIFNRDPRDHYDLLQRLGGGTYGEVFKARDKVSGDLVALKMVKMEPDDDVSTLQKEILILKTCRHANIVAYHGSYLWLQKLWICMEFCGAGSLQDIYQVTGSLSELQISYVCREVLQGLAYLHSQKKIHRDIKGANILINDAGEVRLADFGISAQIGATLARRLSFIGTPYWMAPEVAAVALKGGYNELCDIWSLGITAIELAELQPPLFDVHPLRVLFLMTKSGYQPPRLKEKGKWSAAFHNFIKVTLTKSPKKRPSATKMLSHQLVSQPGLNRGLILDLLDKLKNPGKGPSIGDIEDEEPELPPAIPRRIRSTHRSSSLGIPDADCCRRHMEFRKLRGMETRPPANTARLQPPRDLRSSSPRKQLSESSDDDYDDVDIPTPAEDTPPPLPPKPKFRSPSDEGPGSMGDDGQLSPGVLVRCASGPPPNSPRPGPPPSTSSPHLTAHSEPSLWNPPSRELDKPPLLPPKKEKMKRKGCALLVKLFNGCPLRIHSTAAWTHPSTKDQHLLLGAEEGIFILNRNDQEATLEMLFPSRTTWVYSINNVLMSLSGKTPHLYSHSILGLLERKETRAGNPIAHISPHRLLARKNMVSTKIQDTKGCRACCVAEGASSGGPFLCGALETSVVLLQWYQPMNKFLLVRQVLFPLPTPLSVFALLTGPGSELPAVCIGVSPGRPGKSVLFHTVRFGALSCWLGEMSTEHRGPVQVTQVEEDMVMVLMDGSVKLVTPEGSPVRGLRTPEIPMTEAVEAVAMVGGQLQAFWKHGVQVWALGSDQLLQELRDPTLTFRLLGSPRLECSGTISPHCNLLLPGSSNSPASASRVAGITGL

CC(C)n1cnc2cc(-c3ccc4c(c3)N([C@H]3C[C@@H](N5CCCCC5)C3)C(=O)C43CCN(C(=O)C4(C)CCN(C(=O)[C@H]5CC[C@H](Oc6ccc(N7CCC(=O)NC7=O)cn6)CC5)CC4)CC3)nc(Nc3ccccc3F)c21 [Example 108, 1-(6-{[(1R,4R)-4-{4-[(6-{4-[(2-fluorophenyl)amino]-3-(propan-2-yl)-3H-imidazo[4,5-c]pyridin-6-yl}-2-oxo-1-[(1S,3S)-3-(piperidin-1-yl)cyclobutyl]-1,2-dihydrospiro[indole-3,4′-piperidin]-1′-yl)carbonyl]-4-methylpiperidine-1-carbonyl}cyclohexyl]oxy}pyridin-3-yl)-1,3-diazinane-2,4-dione]
DC50: < 100 nM | Dmax: 70 to 85%

CC(C)n1cnc2cc(-c3ccc4c(c3)N([C@H]3C[C@@H](N5CCCCC5)C3)C(=O)C43CCN(C(=O)C4(C)CCN(C(=O)[C@H]5CC[C@H](N(C)c6ccc(C7CCC(=O)NC7=O)cc6)CC5)CC4)CC3)nc(NC3CC3)c21 (mixture of isomers) [Example 150, (3RS)-3-(4-{methyl[(1R,4R)-4-[4-({6-[4-(cyclopropylamino)-3-isopropylimidazo[4,5-c]pyridin-6-yl]-2-oxo-1-[(1S,3S)-3-(piperidin-1-yl)cyclobutyl]spiro[indole-3,4′-piperidin]-1′-yl}carbonyl)-4-methylpiperidine-1-carbonyl]cyclohexyl]amino}phenyl)piperidine-2,6-dione]
DC50: 100 to 500 nM | Dmax: 50 to 70%

CC(C)n1cnc2cc(-c3ccc4c(c3)N([C@H]3C[C@@H](N5CCCCC5)C3)C(=O)C43CCN(C(=O)N4CCN(C(=O)C5CCN(c6ccc(C7CCC(=O)NC7=O)cn6)CC5)CC4)CC3)nc(NC3CC3)c21 (stereo partly shown) [Example 180]
DC50: < 100 nM | Dmax: 70 to 85%

CC(C)n1cnc2cc(-c3ccc4c(c3)N([C@H]3C[C@@H](N5CCCCC5)C3)C(=O)C43CCN(C(=O)[C@@H]4CCN(C(=O)[C@H]5CC[C@H](Oc6ccc(C7CCC(=O)NC7=O)cc6)CC5)C4)CC3)nc(Nc3ccncc3F)c21 (stereo partly drawn) [Example 15, 3-(4-{[(1R,4R)-4-[(3R)-3-[(6-{4-[(3-fluoropyridin-4-yl)amino]-3-(propan-2-yl)-3H-imidazo[4,5-c]pyridin-6-yl}-2-oxo-1-[(1S,3S)-3-(piperidin-1-yl)cyclobutyl]-1,2-dihydrospiro[indole-3,4′-piperidin]-1′-yl)carbonyl]pyrrolidine-1-carbonyl]cyclohexyl]oxy}phenyl)piperidine-2,6-dione]
DC50: < 100 nM | Dmax: > 85%

CC(C)n1cnc2cc(-c3ccc4c(c3)N([C@H]3C[C@@H](N5CCC[C@@H](F)C5)C3)C(=O)C43CCN(C(=O)C4(C)CCN(C(=O)CC5CCN(c6ccc(C7CCC(=O)NC7=O)cn6)CC5)CC4)CC3)nc(NC3CC3)c21 (mixture of isomers) [Example 205, (3RS)-3-[6-(4-{2-[4-({6-[4-(cyclopropylamino)-3-(propan-2-yl)-3H-imidazo[4,5-c]pyridin-6-yl]-2-oxo-1-[(1S,3S)-3-[(3R)-3-fluoropiperidin-1-yl]cyclobutyl]-1,2-dihydrospiro[indole-3,4′-piperidin]-1′-yl}carbonyl)-4-methylpiperidin-1-yl]-2-oxoethyl}piperidin-1-yl)pyridin-3-yl]piperidine-2,6-dione]
DC50: 100 to 500 nM | Dmax: 50 to 70%

CC(C)n1cnc2cc(-c3ccc4c(c3)N([C@H]3C[C@@H](N5CCCCC5)C3)C(=O)C43CCN(C(=O)c4ccc(C(=O)N5CCN(c6ccc7c(c6)C(=O)N(C6CCC(=O)NC6=O)C7=O)CC5)cc4)CC3)nc(Nc3ccccc3F)c21 (mixture of isomers) [Example 41, 2-[(3RS)-2,6-dioxopiperidin-3-yl]-5-(4-{4-[(6-{4-[(2-fluorophenyl)amino]-3-(propan-2-yl)-3H-imidazo[4,5-c]pyridin-6-yl}-2-oxo-1-[(1S,3S)-3-(piperidin-1-yl)cyclobutyl]-1,2-dihydrospiro[indole-3,4′-piperidin]-1′-yl)carbonyl]benzoyl}piperazin-1-yl)-2,3-dihydro-1H-isoindole-1,3-dione]
DC50: 100 to 500 nM | Dmax: > 85%

CC(C)n1cnc2cc(-c3ccc4c(c3)N([C@H]3C[C@@H](N5CCCCC5)C3)C(=O)C43CCN(C(=O)[C@@H]4CCN(C(=O)[C@H]5CC[C@H](Oc6ccc(N7CCC(=O)NC7=O)cn6)CC5)C4)CC3)nc(NC3CC3)c21 [Example 20, 1-(6-{[(1R,4R)-4-[(3R)-3-({6-[4-(cyclopropylamino)-3-(propan-2-yl)-3H-imidazo[4,5-c]pyridin-6-yl]-2-oxo-1-[(1S,3S)-3-(piperidin-1-yl)cyclobutyl]-1,2-dihydrospiro[indole-3,4′-piperidin]-1′-yl}carbonyl)pyrrolidine-1-carbonyl]cyclohexyl]oxy}pyridin-3-yl)-1,3-diazinane-2,4-dione]
DC50: < 100 nM | Dmax: 70 to 85%

CC(C)n1cnc2cc(-c3ccc4c(c3)N([C@H]3C[C@@H](N5CCC[C@H](F)C5)C3)C(=O)C43CCN(C(=O)C4(C)CCN(C(=O)CC5CCN(c6ccc(C7CCC(=O)NC7=O)cn6)CC5)CC4)CC3)nc(NC3CC3)c21 (mixture of isomers) [Example 206, (3RS)-3-[6-(4-{2-[4-({6-[4-(cyclopropylamino)-3-(propan-2-yl)-3H-imidazo[4,5-c]pyridin-6-yl]-2-oxo-1-[(1S,3S)-3-[(3S)-3-fluoropiperidin-1-yl]cyclobutyl]-1,2-dihydrospiro[indole-3,4′-piperidin]-1′-yl}carbonyl)-4-methylpiperidin-1-yl]-2-oxoethyl}piperidin-1-yl)pyridin-3-yl]piperidine-2,6-dione]
DC50: 100 to 500 nM | Dmax: 50 to 70%

CC(C)n1cnc2cc(-c3ccc4c(c3)N([C@H]3C[C@@H](N5CCCCC5)C3)C(=O)C43CCN(C(=O)C4C5CN(C(=O)C6CCN(c7ccc(C8CCC(=O)NC8=O)cn7)CC6)CC54)CC3)nc(NC3CC3)c21 (mixture of isomers) [Example 38, (3RS)-3-(6-{4-[6-({6-[4-(cyclopropylamino)-3-(propan-2-yl)-3H-imidazo[4,5-c]pyridin-6-yl]-2-oxo-1-[(1S,3S)-3-(piperidin-1-yl)cyclobutyl]-1,2-dihydrospiro[indole-3,4′-piperidin]-1′-yl}carbonyl)-3-azabicyclo[3.1.0]hexane-3-carbonyl]piperidin-1-yl}pyridin-3-yl)piperidine-2,6-dione]
DC50: 100 to 500 nM | Dmax: 50 to 70%

CC(C)n1cnc2cc(-c3ccc4c(c3)N([C@H]3C[C@@H](N5CCCCC5)C3)C(=O)C43CCN(C(=O)[C@@H]4CCN(C(=O)[C@H]5CC[C@H](Nc6ccc(C7CCC(=O)NC7=O)cc6)CC5)C4)CC3)nc(NC3CC3)c21 (mixture of isomers) [Example 2, (3RS)-3-(4-{[(1R,4R)-4-[(3R)-3-({6-[4-(cyclopropylamino)-3-(propan-2-yl)-3H-imidazo[4,5-c]pyridin-6-yl]-2-oxo-1-[(1S,3S)-3-(piperidin-1-yl)cyclobutyl]-1,2-dihydrospiro[indole-3,4′-piperidin]-1′-yl}carbonyl)pyrrolidine-1-carbonyl]cyclohexyl]amino}phenyl)piperidine-2,6-dione]
DC50: < 100 nM | Dmax: 70 to 85%

CC(C)n1cnc2cc(-c3ccc4c(c3)N([C@H]3C[C@@H](N5CCCCC5)C3)C(=O)C43CCN(C(=O)[C@@H]4C[C@@H]5C[C@H]4CN5C(=O)C4CCN(c5ccc(C6CCC(=O)NC6=O)cn5)CC4)CC3)nc(NC3CC3)c21 (mixture of isomers) [Example 265, (3RS)-3-(6-{4-[(S,4R,5R)-5-({6-[4-(cyclopropylamino)-3-(propan-2-yl)-3H-imidazo[4,5-c]pyridin-6-yl]-2-oxo-1-[(1S,3S)-3-(piperidin-1-yl)cyclobutyl]-1,2-dihydrospiro[indole-3,4′-piperidin]-1′-yl}carbonyl)-2-azabicyclo[2.2.1]heptane-2-carbonyl]piperidin-1-yl}pyridin-3-yl)piperidine-2,6-dione]
DC50: < 100 nM | Dmax: 70 to 85%

CC(C)n1cnc2cc(-c3ccc4c(c3)N([C@H]3C[C@@H](N5CCCCC5)C3)C(=O)C43CCN(C(=O)C4C5CC4CN(C(=O)[C@H]4CC[C@H](Oc6ccc(C7CCC(=O)NC7=O)cc6)CC4)C5)CC3)nc(NC3CC3)c21 (stereo partly drawn) [Example 241, 3-(4-{[(1R,4R)-4-[6-({6-[4-(cyclopropylamino)-3-(propan-2-yl)-3H-imidazo[4,5-c]pyridin-6-yl]-2-oxo-1-[(1S,3S)-3-(piperidin-1-yl)cyclobutyl]-1,2-dihydrospiro[indole-3,4′-piperidin]-1′-yl}carbonyl)-3-azabicyclo[3.1.1]heptane-3-carbonyl]cyclohexyl]oxy}phenyl)piperidine-2,6-dione]
DC50: < 100 nM | Dmax: > 85%

CC(C)n1cnc2cc(-c3ccc4c(c3)N([C@H]3C[C@@H](N5CCCCC5)C3)C(=O)C43CCN(C(=O)[C@]4(C)CCN(C(=O)[C@H]5CC[C@H](Oc6ccc(C7CCC(=O)NC7=O)cn6)CC5)C4)CC3)nc(NC3CC3)c21 (stereo partly drawn) [Example 163, 3-(6-(((1R,4R)-4-((R)-3-(6-(4-(cyclopropylamino)-3-isopropyl-3H-imidazo[4,5-c]pyridin-6-yl)-2-oxo-1-((1S,3S)-3-(piperidin-1-yl)cyclobutyl)spiro[indoline-3,4′-piperidine]-1′-carbonyl)-3-methylpyrrolidine-1-carbonyl)cyclohexyl)oxy)pyridin-3-yl)piperidine-2,6-dione]
DC50: 100 to 500 nM | Dmax: > 85%

CC(C)n1cnc2cc(-c3ccc4c(c3)N([C@H]3C[C@@H](N5CCCCC5)C3)C(=O)C43CCN(C(=O)[C@@H]4CCCN(C(=O)C5CCN(c6ccc(C7CCC(=O)NC7=O)cn6)CC5)C4)CC3)nc(NC3CC3)c21 (mixture of isomers) [Example 264, (3RS)-3-(6-{4-[(3R)-3-({6-[4-(cyclopropylamino)-3-(propan-2-yl)-3H-imidazo[4,5-c]pyridin-6-yl]-2-oxo-1-[(1S,3S)-3-(piperidin-1-yl)cyclobutyl]-1,2-dihydrospiro[indole-3,4′-piperidin]-1′-yl}carbonyl)piperidine-1-carbonyl]piperidin-1-yl}pyridin-3-yl)piperidine-2,6-dione]
DC50: < 100 nM | Dmax: 70 to 85%
